From ChEMBL document CHEMBL1136422, “Synthesis, in vitro, and in vivo evaluation of phosphate ester derivatives of combretastatin A-4” (Bioorg Med Chem Lett, 2003)

What was measured:
Mus musculus = test: Vascular shutdown expressed as vessel density decrease in percent of the control at the dose of 100 mg/kg; type: functional
[1] = In vitro cytotoxicity evaluated in mouse heart endotheliaoma cell (MHEC5-T) after incubation of the cells for 1 hr; type: functional, cell-based
[2] = In vitro cytotoxicity evaluated in mouse heart endotheliaoma cell (MHEC5-T) after incubation of the cells for 5 days; type: functional, cell-based; settings: 120 h
HT-29 = test: Cytotoxicity evaluated against colon cancer cell line (HT-29); type: functional, cell-based; settings: Homo sapiens

SMILES	Vessel density decrease vs control (Mus musculus)	IC50 [1]	IC50 [2]	IC50 (HT-29)
COc1ccc(/C=C\c2cc(OC)c(OC)c(OC)c2)cc1OP(=O)([O-])Oc1cc(/C=C\c2cc(OC)c(OC)c(OC)c2)ccc1OC.[Na+]	0%	> 25 µM	0.51 µM	
COc1ccc(/C=C\c2cc(OC)c(OC)c(OC)c2)cc1OP(=O)(O)OC1CCCCC1.N	0%	> 25 µM	3 µM	
CCCCCCCCOP(=O)(O)Oc1cc(/C=C\c2cc(OC)c(OC)c(OC)c2)ccc1OC.N	89%	25 µM	0.07 µM	
COc1ccc(/C=C\c2cc(OC)c(OC)c(OC)c2)cc1OP(=O)(O)OCC(F)(F)F.N	0%	10 µM	0.06 µM	
COc1ccc(/C=C\c2cc(OC)c(OC)c(OC)c2)cc1OP(=O)(OC)OC	20%	35 µM	0.13 µM	
CCCCOP(=O)(OCCCC)Oc1cc(/C=C\c2cc(OC)c(OC)c(OC)c2)ccc1OC	0%	8 µM	0.26 µM	
COc1ccc(/C=C\c2cc(OC)c(OC)c(OC)c2)cc1OP(=O)(O)OC.N	0%	38 µM	0.07 µM	
COc1ccc(/C=C\c2cc(OC)c(OC)c(OC)c2)cc1OP(=O)(O)Oc1cccc(Cl)c1.N	90%	> 25 µM	3 µM	
COc1ccc(/C=C\c2cc(OC)c(OC)c(OC)c2)cc1OCCCS(=O)(=O)[O-].[Na+]	10%	> 25 µM	> 25 µM	
COc1ccc(/C=C\c2cc(OC)c(OC)c(OC)c2)cc1O [COMBRETASTATIN A4]	71%	1.05 µM	0.004 µM	
COc1ccc(/C=C\c2cc(OC)c(OC)c(OC)c2)cc1OP(=O)([O-])[O-].[Na+].[Na+] [FOSBRETABULIN DISODIUM]	88%	0.8 µM	0.002 µM	0.2 µM
